From patent publication US7005449B2, “Tolterodine salts” (Pharmacia & Upjohn Company, priority 2002, dated 2006)

Key:
[1] = Equilibrium solubility of tolterodine salts (shaking excess salt 24 hours, RP-HPLC)
Description: The resultant solution is centrifuged at 5000 rpm for 30 min in a temperature-controlled centrifuge. The supernatant was diluted and analysed for tolterodine by reversed phase high performance liquid chromatography (RP-HPLC).

[2] = Rotating disk dissolution of tolterodine salts; format: physicochemical; conditions: 25° C.; for Rotating disk dissolution rate (RDDR): pH 6, 0.05 M phosphate buffer
Description: Data was collected on the salts. Rotating disk dissolution data was collected at pH 6 in a 0.05 M phosphate buffer at 25° C. on a fiber optic apparatus.

[3] = Rotating disk dissolution of tolterodine salts; format: physicochemical; conditions: extrapolated from carbon chain length trend
[4] = traditional tablet administration; cited from earlier work

## maleate
[1]; 0.1 M phosphate buffer pH 7.4, 24 hours, room temperature
  Equilibrium solubility in buffer: 4700 µg/mL
[1]; final pH of the buffer solubility sample
  final pH in buffer: 6.9
[1]; final pH of the water solubility sample
  final pH in water: 5.0
[1]; water, 24 hours, room temperature
  Equilibrium solubility in water: 1500 µg/mL
[2]
  Rotating disk dissolution rate (RDDR): 4.1 μg cm^−2s^−1

## CCCCCCCCCCCCCC(=O)O.Cc1ccc(O)c(C(CCN(C(C)C)C(C)C)c2ccccc2)c1 (centres unmarked) [myristic (14 C)]
[3]
  predicted dissolution rate: very low

## fumarate
[2]
  Rotating disk dissolution rate (RDDR): 2.6 μg cm^−2s^−1

## CCCCCCCCCCCCCCCC(=O)O.Cc1ccc(O)c(C(CCN(C(C)C)C(C)C)c2ccccc2)c1 (centres unmarked) [palmitic (16 C)]
[3]
  predicted dissolution rate: very low

## Cc1ccc(O)c([C@H](CCN(C(C)C)C(C)C)c2ccccc2)c1 [tolterodine, 2-[(1R)-3-(diisopropylamino)-1-phenylpropyl]-4-methylphenol]
[4]
  time of peak plasma concentration: 1 to 2 h

## tolterodine heptanoate
[2]
  Rotating disk dissolution rate (RDDR): 2.7 μg cm^−2s^−1

## CCCCCCCCCC(=O)O.Cc1ccc(O)c([C@H](CCN(C(C)C)C(C)C)c2ccccc2)c1 [caprate]
[2]
  Rotating disk dissolution rate (RDDR): 0.75 μg cm^−2s^−1

## laurate
[2]
  Rotating disk dissolution rate (RDDR): 0.38 μg cm^−2s^−1

## Cc1ccc(O)c([C@H](CCN(C(C)C)C(C)C)c2ccccc2)c1.O=C(O)C(O)C(O)C(=O)O [tartrate, tolterodine tartrate, reference compound]
[2]; pH 6 media
  rotating disk dissolution rate: 14 μg cm^−2sec^−1
[2]
  Rotating disk dissolution rate (RDDR): 14.0 μg cm^−2s^−1

## Cc1ccc(O)c(C(CCN(C(C)C)C(C)C)c2ccccc2)c1.O=C(O)c1cc2ccccc2c(Cc2c(O)c(C(=O)O)cc3ccccc23)c1O [pamoate, tolterodine pamoate]
[2]
  Rotating disk dissolution rate (RDDR): <0.3 μg cm^−2s^−1
[2]; listed as pamoate salt
  Rotating disk dissolution rate (RDDR): less than the detection limit of the instrument

## benzoate
[2]
  Rotating disk dissolution rate (RDDR): 2.1 μg cm^−2s^−1
